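A five-concentration, 48-hour dose response in 96-well plates underlies each endpoint, interpolated linearly between surrounding concentrations. Abbreviation: GI50, concentration required for 50% inhibition of growth. TGI: concentration producing complete growth inhibition.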
Key:
Experiment in all cases: DTP human tumour cell line panel, 48 h
SNB-19 CNS = test system: SNB-19 CNS
A549 NSCLC = test system: A549 NSCLC
IGROV1 ovarian = test system: IGROV1 ovarian
CAKI-1 renal = test system: CAKI-1 renal
HOP-62 NSCLC = test system: HOP-62 NSCLC
U251 CNS = test system: U251 CNS
NCI-H522 lung = test system: NCI-H522 lung
UACC-257 melanoma = test system: UACC-257 melanoma
SK-MEL-5 melanoma = test system: SK-MEL-5 melanoma
RPMI-8226 leukemia = test system: RPMI-8226 leukemia

Compound	GI50 (SNB-19 CNS) [µM]	TGI (SNB-19 CNS) [µM]	GI50 (A549 NSCLC) [µM]	TGI (A549 NSCLC) [µM]	GI50 (IGROV1 ovarian) [µM]	TGI (IGROV1 ovarian) [µM]	GI50 (CAKI-1 renal) [µM]	TGI (CAKI-1 renal) [µM]	GI50 (HOP-62 NSCLC) [µM]	TGI (HOP-62 NSCLC) [µM]	GI50 (U251 CNS) [nM]	TGI (U251 CNS) [µM]	GI50 (NCI-H522 lung) [µM]	TGI (NCI-H522 lung) [µM]	GI50 (UACC-257 melanoma) [µM]	TGI (UACC-257 melanoma) [µM]	GI50 (SK-MEL-5 melanoma) [µM]	TGI (SK-MEL-5 melanoma) [µM]	GI50 (RPMI-8226 leukemia) [nM]	TGI (RPMI-8226 leukemia) [µM]
CCOC(=O)c1sc(NC(=O)COc2cccc(/C=C3\CCc4cc(OC)ccc4C3=O)c2)nc1C	2.78	> 100	34.7	> 100	3.02	21	7.16	> 100	18.2	55.2	2980	9.13	3.6	> 100	9.79	> 100	2.65	13.3	1200	3.38
Cc1ccc(C)c(N2C(=O)C(=O)C(c3nc4ccccc4o3)/C(=N\NC(=O)c3ccccc3O)C2=O)c1 (stereo not given)	–	> 100	–	> 100	–	> 100	–	18.5	–	> 100	–	> 100	–	54	–	> 100	–	> 100	–	77.8
Cc1ccc(NC(=O)C(=O)C2C(=O)NC(=O)NC2=O)cc1C	–	> 100	–	> 100	–	> 100	–	> 100	–	> 100	–	> 100	–	> 100	–	> 100	–	> 100	–	> 100
C1=NC(N(Cc2ccccc2)Cc2ccccc2)N(Cc2ccccc2)N1 (stereo not given)	–	55.3	–	37.3	–	33.6	–	46.1	–	32.7	–	32.1	–	40.9	–	33.5	–	27.3	–	32.9
Cc1ccc2c(c1-c1ccccc1)C(=O)OC2	–	> 100	–	> 100	–	> 100	–	> 100	–	> 100	–	> 100	–	> 100	–	> 100	–	> 100	–	> 100
Oc1ccc(N=Nc2nccs2)c(O)c1	11.5	53.1	5.11	54.4	4.14	15.2	0.417	2.37	19.9	49.8	4500	35.2	3.5	13.6	16.4	60.1	3.44	18.4	1620	4.91
CC(Cl)CN1c2ccccc2Sc2ccc(Cl)cc21 (stereo not given)	–	> 10	–	> 10	–	> 10	–	> 10	–	> 10	–	> 10	–	> 10	–	> 10	–	> 10	–	> 10
Cn1cc(-c2csc(-c3cn(C)c4ccc(F)cc34)n2)c2cnccc21	1.82	3.3	1.67	3.27	1.96	3.63	1.77	3.19	1.92	3.49	1800	3.23	1.77	3.34	1.8	3.26	1.66	3.05	1980	4.14
Cc1cc(NCCCCNc2ccnc3cc(Cl)ccc23)nc(Nc2ccc(C(=O)N3CCCCC3)cc2)n1	3.25	13.3	2.51	5.47	2.27	6.22	1.75	3.47	2.09	4.2	1780	3.56	1.86	4.22	1.89	3.42	1.7	3.07	239	1.04
Cc1c2c(C(N)=O)nccc2c(C)c2c1c1ccccc1n2Cc1ccccc1	–	51.2	–	35.4	–	42.7	–	59	–	19.3	–	24.9	–	54.6	–	> 100	–	67.5	–	61.2
COc1ccc(-c2ccc(NNC(=O)c3ccc(F)cc3)nn2)cc1OC	> 100	> 100	99.5	> 100	63.3	> 100	34.3	> 100	91.7	> 100	> 100000	> 100	54.3	> 100	> 100	> 100	45	> 100	35300	> 100
C=CCC1(C)CCCCC1(O)CS(=O)c1ccccc1 (stereo not given)	–	> 100	–	> 100	–	> 100	–	> 100	–	> 100	–	> 100	–	> 100	–	> 100	–	> 100	–	> 100
C=C1C(O)C2C(=C(C)C13CC3)C(=O)C(C)(C)C2OC (stereo not given)	> 100	> 100	> 100	> 100	> 100	> 100	71.8	> 100	> 100	> 100	> 100000	> 100	75.4	> 100	44.4	> 100	50.5	> 100	41300	> 100
COc1cc(-c2nnc3n2NC=C(C(=O)O)S3)cc(OC)c1OC	–	> 100	–	> 100	–	> 100	–	> 100	–	> 100	–	> 100	–	> 100	–	> 100	–	> 100	–	> 68.7
c1ccc2c(c1)c1ccccc1c1ccccc21	> 100	> 100	> 100	> 100	> 100	> 100	> 100	> 100	> 100	> 100	> 100000	> 100	> 100	> 100	> 100	> 100	> 100	> 100	> 100000	> 100
Cc1c(Cl)cccc1NC(=O)c1cccc([N+](=O)[O-])c1O	–	> 100	–	> 72.1	–	> 83.2	–	> 64.1	–	29.3	–	77.5	–	31.6	–	38.8	–	15.5	–	> 60

Source: PubChem BioAssay (NCI)
